Experimental data taken from patent publication US11649475B2, “Dioxetane compounds and their use for the detection of microorganisms” (NEMIS Technologies AG, priority 2018, dated 2023).

Columns and labels:
[1] = tested on: phosphatidylinositol-specific phospholipase C (PI-PLC); test: Enzymatic assay of PI-PLC activity with Compound IIIa; format: biochemical; conditions: for RLU: 10 μM, PBS pH 7.4, 1% v/v DMSO
Procedure: Varying concentrations of phosphatidylinositol-specific phospholipase C (PI-PLC) were added and luminescence was recorded at room temperature (Table 4). Assays were performed in a white microtiter plate with 0.25 mL total liquid volume.

[2] = tested on: Listeria monocytogenes ATCC 7644; test: Luminescence of culture samples after addition of Compound IIIa; format: cell-based; conditions: L.m. 1, inoculation density 10^5 CFU/mL, 6 h cultivation, 10 μM
Procedure: (§1) Similar cell concentrations of all strains were inoculated in triplicate test tubes with M52 broth. In addition, further dilutions of L.m. 2 cells in sterile saline were inoculated in triplicate test tubes. Sterile saline was added to negative control tubes. […] Final concentration of Compound IIIa was 10 μM, final concentration of dimethyl sulfoxide was 1% v/v. Light emission was recorded with a plate reader equipped with a luminescence detection system. […] It was possible to detect 10^3 CFU/mL of Listeria monocytogenes after 6 h of incubation as indicated by a signal-to-noise ratio of 2 relative to sterile controls.

[3] = tested on: Escherichia coli ATCC 25922; test: as above; format: cell-based; conditions: E.c., inoculation density 10^5 CFU/mL, 6 h cultivation, 10 μM
Procedure: as §1

[4] = tested on: Listeria innocua (6a) ATCC 33090; test: as above; format: cell-based; conditions: L.i., inoculation density 10^5 CFU/mL, 6 h cultivation, 10 μM
Procedure: as §1

[5] = tested on: Listeria monocytogenes (4b) ATCC 19115; test: as above; format: cell-based; conditions: 6 h cultivation, 10 μM; for Mean RLU (n = 3): 16-20 min after addition
Procedure: as §1

[6] = L.m. 2, inoculation density 10^2 CFU/mL
[7] = L.m. 2, inoculation density 10^3 CFU/mL
[8] = L.m. 2, inoculation density 10^4 CFU/mL
[9] = L.m. 2, inoculation density 10^5 CFU/mL

For `COC(=O)/C=C/c1ccc(C2(OC)OOC23C2CC4CC(C2)CC3C4)c(Cl)c1OCc1ccc(OP(=O)(O)O[C@@H]2[C@H](O)[C@H](O)[C@@H](O)[C@H](O)[C@H]2O)cc1` (stereo partly shown) [Compound IIIa], the “Signal to noise ratio” value ([1]; PI-PLC added 5 · 10^−1 U/mL) was 862, the RLU ([1]; PI-PLC added 5 · 10^−1 U/mL) was 60265 RLU and the “Signal to noise ratio” value ([1]; PI-PLC added 5 · 10^−2 U/mL) was 512. For the same compound, the RLU ([1]; PI-PLC added 5 · 10^−2 U/mL) was 35822 RLU, the “Signal to noise ratio” value ([1]; PI-PLC added 5 · 10^−3 U/mL) was 148 and the RLU ([1]; PI-PLC added 5 · 10^−3 U/mL) was 10369 RLU. For the same compound, the “Signal to noise ratio” value ([1]; PI-PLC added 5 · 10^−4 U/mL) was 17, the RLU ([1]; PI-PLC added 5 · 10^−4 U/mL) was 1191 RLU and the “Signal to noise ratio (to sterile)” value [2] was 832. The “Mean RLU (n = 3)” value ([2]; 16-20 min after addition) was 11913 RLU, the “Signal to noise ratio (to sterile)” value [3] was 0.5 and the “Mean RLU (n = 3)” value ([3]; 16-20 min after addition) was 7 RLU. For the same compound, the “Signal to noise ratio (to sterile)” value [4] was 2.3, the “Mean RLU (n = 3)” value ([4]; 16-20 min after addition) was 33 RLU and the “Signal to noise ratio (to sterile)” value [5, 6] was 0.9. The “Mean RLU (n = 3)” value [5, 6] was 12 RLU, the “Signal to noise ratio (to sterile)” value [5, 7] was 2.2 and the “Mean RLU (n = 3)” value [5, 7] was 31 RLU. The “Signal to noise ratio (to sterile)” value [5, 8] was 17, the “Mean RLU (n = 3)” value [5, 8] was 242 RLU and the “Signal to noise ratio (to sterile)” value [5, 9] was 716. The “Mean RLU (n = 3)” value [5, 9] was 10258 RLU.
